How the values were obtained:
Type in all cases: in vivo
[1] = tested on: Nephotettix cincticeps (green leaf hopper); assay: Activity against Nephotettix cincticeps (green leaf hopper), % mortality; settings: for activity against Nephotettix cincticeps (green leaf hoppers), in words: compound by itself
Excerpt: In experiments on activity against Nephotettix spp. (rice leaf hoppers), for example, Nephotettix cincticeps (green leaf hopper), carried out on representative compounds of the first preferred embodiment, the following results (wherein ppm indicates the concentration of the compound in parts per million of the test solution applied) have been obtained, as shown in Table 7: […]

[2] = tested on: Nilaparvata lugens (brown planthoppers); assay: Activity against Nilaparvata lugens (brown planthoppers); settings: compound by itself
[3] = tested on: Cnaphalocrocis medinalis (rice leaf rollers); assay: Activity against Cnaphalocrocis medinalis (rice leaf rollers); settings: compound by itself

| Compound | activity against Nephotettix cincticeps (green leaf hoppers), in words [1] | activity against Nilaparvata lugens (brown planthoppers), in words [2] | activity against Cnaphalocrocis medinalis (rice leaf rollers), in words [3] | mortality at 6.25 ppm ([1]; Nephotettix cincticeps, Indoxacarb 6.25 ppm alone (Ethiprole 0 ppm)) | mortality at 12.5 ppm ([1]; Nephotettix cincticeps, Indoxacarb 12.5 ppm alone (Ethiprole 0 ppm)) | mortality at 25 ppm ([1]; Nephotettix cincticeps, Indoxacarb 25 ppm alone (Ethiprole 0 ppm)) | activity against Nephotettix cincticeps (green leaf hoppers), in words ([1]; listed as indoxacarb) | activity against Nilaparvata lugens (brown planthoppers), in words ([2]; listed as indoxacarb) | activity against Cnaphalocrocis medinalis (rice leaf rollers), in words ([3]; listed as indoxacarb) |
| --- | --- | --- | --- | --- | --- | --- | --- | --- | --- |
| CC[S+]([O-])c1c(C#N)nn(-c2c(Cl)cc(C(F)(F)F)cc2Cl)c1N (stereo not drawn) [Ethiprole, ethiprole] | some activity by itself | shows activity | not particularly active |  |  |  |  |  |  |
| COC(=O)N(C(=O)N1COC2(C(=O)OC)Cc3cc(Cl)ccc3C2=N1)c1ccc(OC(F)(F)F)cc1 (stereo not drawn) [Indoxacarb, indoxacarb] | some activity by itself | not particularly active | very active | 0% | 16.2% | 38% | active | not particularly effective | active |
